Data published in ChEMBL document CHEMBL1155094, “Isosteric exchange of the acylsulfonamide moiety in Abbott's Bcl-XL protein interaction antagonist” (Bioorg Med Chem Lett, 2008).

Molecular target: T1, Bcl-2-like protein 2 (Homo sapiens, UniProt Q92843)
T1 sequence (Q92843 whole entry): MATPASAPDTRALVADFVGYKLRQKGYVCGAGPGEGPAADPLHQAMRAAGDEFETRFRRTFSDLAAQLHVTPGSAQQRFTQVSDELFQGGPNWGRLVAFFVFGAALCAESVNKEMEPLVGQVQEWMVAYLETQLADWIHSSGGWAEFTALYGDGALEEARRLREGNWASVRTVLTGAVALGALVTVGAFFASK
Experiment: Inhibition of 5-carboxyfluorescein-labeled Flu-Bak-BH3 peptide binding to Bcl-w by fluorescence polarization assay

| SMILES | Ki |
| --- | --- |
| CN(CC(=O)Nc1ccc(N2CCCCC2)c([N+](=O)[O-])c1)C(=O)c1ccc(-c2ccccc2)cc1 | 10.8 µM |
| CN(CC(=O)Nc1ccc(NC23CC4CC(CC(C4)C2)C3)c([N+](=O)[O-])c1)C(=O)c1ccc(-c2ccccc2)cc1 | 9.43 µM |
| CN(CC(=O)Nc1ccc(N2CCSCC2)c([N+](=O)[O-])c1)C(=O)c1ccc(-c2ccccc2)cc1 | 13 µM |
